Laboratory results as given in patent publication US20230083012A1, “DIHYDROPYRIMIDINE DERIVATIVES AND USES THEREOF IN THE TREATMENT OF HBV INFECTION OR OF HBV-INDUCED DISEASES” (priority 2019, published 2023).
Read-outs that look alike come from different tables or passages of the source.

How the values were obtained:
Assay type in all cases: cell-based
HepG2.2.15 cells = assay: Cytotoxicity determination in HepG2.2.15 cells (CCK-8 cell viability); conditions: 6 days treatment, CCK-8 assay, highest concentration 100 uM
Outline: (§1)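 Viability measured by CCK-8 absorbance (450 nm, 630 nm reference, 2.5 h at 37° C) after six days of treatment, medium and compound renewed on day 3. Top concentration 100 uM, eight threefold dilutions in triplicate; cells plated at 5,000/well in 2% FBS medium; CC50 derived.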

HBV = assay: Anti-HBV activity in HepG2.2.15 cells (HBV DNA in culture medium by qPCR); conditions: HepG2.2.15 cells, 6 days treatment, HBV DNA in culture medium quantified by real-time PCR, read-out: EC50
Outline: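 Secreted HBV DNA was measured by real-time PCR after 6-day compound exposure of HepG2.2.15 cells (2% FBS, 37 °C, re-dosed after 3 days), giving EC50 from 8-point 1:3 series starting at 10 or 1 uM. Cytotoxicity (CC50) run separately at lower cell density, top 100 uM.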

[1] = Cytotoxicity determination in HepG2.2.15 cells (CCK-8 cell viability); conditions: human, 6 days treatment, CCK-8 assay, highest concentration 100 uM
Outline: as §1

[2] = Hepatitis B virus, HepG2.2.15, 144 h

Structure (SMILES): COC(=O)C1=C(CN2CC(F)(F)[C@H]3[C@@H]2CCN3C[C@@H](C)C(=O)O)NC(c2nccs2)=N[C@H]1c1cccc(F)c1C (single isomer, unassigned) [Compound 131B, 3-((cis)-6,6-Difluoro-4-(((S*)-6-(3-fluoro-2-methylphenyl)-5-(methoxycarbonyl)-2-(thiazol-2-yl)-3,6-dihydropyrimidin-4-yl)methyl)hexahydropyrrolo[3,2-b]pyrrol-1(2H)-yl)-2-methylpropanoic acid]
- CC50 (HepG2.2.15 cells): 65600 nM
- EC50 (HBV): 29.7 nM

Structure (SMILES): CCOC(=O)C1=C(CN2CC(F)(F)C3C2CCN3NCC(C)(C)C(=O)O)NC(c2nccs2)=N[C@H]1c1cccc(F)c1C (some centres unmarked) [Compound 27]
- CC50 at 6 days [1]: 13900 nM
- EC50 (HBV; [2]): 42 nM

Structure (SMILES): CCOC(=O)C1=C(CN2CC(F)(F)C3C2CN(C(C)=O)N3CCC(C)(C)C(=O)O)NC(c2nccs2)=N[C@H]1c1cccc(F)c1C (stereo partly drawn) [Compound 70, 4-(2-acetyl-4-(((S)-5-(ethoxycarbonyl)-6-(3-fluoro-2-methylphenyl)-2-(thiazol-2-yl)-3,6-dihydropyrimidin-4-yl)methyl)-6,6-difluorohexahydropyrrolo[3,2-c]pyrazol-1(2H)-yl)-2,2-dimethylbutanoic acid]
- CC50 at 6 days [1]: 27100 nM
- EC50 (HBV; [2]): 8.1 nM

Structure (SMILES): CCOC(=O)C1=C(CN2CC(F)(F)[C@H]3[C@@H]2CN(C(C)=O)N3CCC(C)(C)C(=O)O)NC(c2nccs2)=N[C@H]1c1cccc(F)c1C [Compound 70A, 4-((cis)-2-Acetyl-4-(((S)-5-(ethoxycarbonyl)-6-(3-fluoro-2-methylphenyl)-2-(thiazol-2-yl)-3,6-dihydropyrimidin-4-yl)methyl)-6,6-difluorohexahydropyrrolo[3,2-c]pyrazol-1(2H)-yl)-2,2-dimethylbutanoic acid]
- CC50 at 6 days [1]: > 50000 nM
- EC50 (HBV): 35 nM

Structure (SMILES): CCOC(=O)C1=C(CN2CC(F)(F)[C@H]3[C@@H]2CN(C(C)=O)N3CCC(C)(C)C(=O)O)NC(c2nccs2)=N[C@H]1c1cccc(F)c1C [Compound 70B, 4-((cis)-2-Acetyl-4-(((S)-5-(ethoxycarbonyl)-6-(3-fluoro-2-methylphenyl)-2-(thiazol-2-yl)-3,6-dihydropyrimidin-4-yl)methyl)-6,6-difluorohexahydropyrrolo[3,2-c]pyrazol-1(2H)-yl)-2,2-dimethylbutanoic acid]
- CC50 (HepG2.2.15 cells): > 50000 nM
- EC50 (HBV): 16 nM

Structure (SMILES): CCOC(=O)C1=C(CN2CC(F)(F)C3C2CN(C(C)=O)N3CCC(CC)C(=O)O)NC(c2nccs2)=N[C@H]1c1cccc(F)c1C (some centres unmarked) [Compound 78]
- CC50 at 6 days [1]: 70300 nM
- EC50 (HBV; [2]): 49 nM

Structure (SMILES): CCOC(=O)C1=C(CN2CC(F)C3C(=O)N(CC(C)(C)C(=O)O)CC32)NC(c2nccs2)=N[C@H]1c1cccc(F)c1C (stereo partly drawn) [Compound 186, 3-((cis)-1-(((S)-5-(ethoxycarbonyl)-6-(3-fluoro-2-methylphenyl)-2-(thiazol-2-yl)-3,6-dihydropyrimidin-4-yl)methyl)-3-fluoro-4-oxohexahydropyrrolo[3,4-b]pyrrol-5(1H)-yl)-2,2-dimethylpropanoic acid]
- CC50 at 6 days [1]: 66900 nM
- EC50 (HBV; [2]): 8.9 nM
